Results from US20240076615A1, “MODELS AND METHODS FOR RAPID SCREENING OF THE EFFICACY OF IMMUNOREGULATING DRUGS” (priority 2022, published 2024).

Tested on: tumor cells and immune cells of a patient with ovarian cancer
Experiment: IO-FIVE capsule tube test in mice, ovarian cancer patient (Example 3), CTG and FACS
Assay type: in vivo, human
Settings: day 10; tumor sample after addition of autologous TIL cells
Description: The following was collected for cell identification: a single cell suspension of tumor tissue samples of patients before purification, tumor cells after purification, enriched immune cells (containing CD3+T) eluted from the column, and a cell suspension in which tumor cells after purification and immune cells were mixed in a certain ratio (1.5:1 to 15:1), to yield a final cell count of 0.1 to 0.3 million cells. (Note that if the viability of immune cells eluted from the column was less than 20%, then downstream experiments and operations could not be performed, especially since activated immune cells were more likely to undergo activation-induced apoptosis). […]
According to the data analyzed in step of flow cytometry, the CD45− tumor cells and CD3+ T cells were mixed in a certain ratio (about 1.5:1-15:1). […]
3-21 days after administration (day 10 here), the mice were euthanized, and the PVDF tubes were removed. Cell viability was quantified by the CellTiter-Glo chemiluminescence method, and the relative ratio and basic phenotype of tumor cells and immune cells in PVDF tubes were detected by flow cytometry.
The results were analyzed by Flowjo software.

NC(=O)c1cccc2cn(-c3ccc([C@@H]4CCCNC4)cc3)nc12 [PARP inhibitor, Niraparib]
viability of total cells / overall tumor viability (CTG): neither PD1 antibody nor PARP inhibitor mono-therapy could inhibit
